Measurements as given in publication PMC7766155, “Improved Stability and Activity of a Marine Peptide-N6NH2 against Edwardsiella tarda and Its Preliminary Application in Fish” (Marine Drugs, 2020).
≈ marks a conversion by molar mass, not a printed value. Where “and” joins values, the source holds several entries; their conditions need not be identical. Identical values can stand only once. Like-named read-outs stand apart in the source and are kept apart here. Where a SMILES comes first, the peptide text is derived from it. Bridges are numbered along the chain shown (N, C = ends).

What was measured:
E. tarda [1] = format: cell-based, Edwardsiella tarda
Method: (§1) All tests were conducted in triplicate.

E. tarda [2] = assay: Time-kill curves; format: cell-based, Edwardsiella tarda; details: 10^5 CFU/mL, 28 °C, 200 rpm, plate count every 2 h
Method: Time–kill curves for N6 and N6NH2 were determined against E. tarda. In brief, the mid-log phase bacterial cells (10^5 CFU/mL) were mixed with different concentrations of peptides (1 × and 2 × and 4 × MIC) and cultured at 28 °C (200 rpm). Samples of 100 μL were taken from the mixture at intervals of 2 h, continuously diluted, and counted on the plate.

E. tarda [3] = assay: Thermal stability (residual antibacterial activity, inhibition zone); format: physicochemical, Edwardsiella tarda; details: incubated 1 h at 100 °C; N6 128 μg/mL; inhibition zone method vs untreated peptide; triplicate
Method: (§2) To evaluate the thermal stability of peptides, N6 and N6NH2 were incubated for 1 h at 4, 20, 40, 60, 80 and 100 °C. To measure the pH stability, peptides were incubated for 3 h in 100 mM glycine-HCl buffer (pH 2.0), sodium acetate buffer (pH 4.0), sodium phosphate buffer (pH 6.0), Tris-HCl buffer (pH 8.0) or glycine-NaOH buffer (pH 10.0). In addition, peptides were incubated for 4 h at 37 °C in pepsin (3,000 U/mg, pH 2.0) and trypsin (250 U/mg, pH 8.0) (10:1, w/w) solutions, respectively. […] After treatment, 30 μL of solutions were taken out to determine the antibacterial activity of peptides against E. tarda by the inhibition zone method. The untreated peptides were used as the control. All tests were conducted in triplicate.

E. tarda [4] = assay: pH stability (residual antibacterial activity, inhibition zone); format: physicochemical, Edwardsiella tarda; details: pH values of 2–10, 3 h incubation; N6 128 μg/mL, norfloxacin 10 μg/mL; inhibition zone method vs E. tarda
Method: as §2

[5] = test system: inner membrane of E. tarda; assay: Inner membrane penetration, PI staining, flow cytometry; format: cell-based, Edwardsiella tarda
Method: After washing twice with PBS, the cells were incubated with PI (50 μg/mL) for 15 min and analyzed using a FACS Calibur Flow Cytometer (BD, San Jose, CA, USA).

E. tarda genomic DNA = assay: Competitive binding of genomic DNA with ethidium bromide; parameters: species or system Edwardsiella tarda; details: peptide 160 μg/mL added to DNA (10 μg)-EB; 30 min at 37 °C
Method: E. tarda genomic DNA was dissolved in TE buffer to a concentration of 100 μg/mL; 1.5 μL of EB (100 μg/mL) solution was mixed with 100 μL of DNA solution and then added into 96-well plates. The DNA-EB mixture was incubated in the dark at 37 °C for 10 min. Varying concentrations of peptides (0, 40, 80, and 160 μg/mL, 100 μL) were then added to the DNA-EB solution (100 μL), and the fluorescence spectra were measured for each test solution after 30 min of incubation at 37 °C in the dark. Infinite M200 PRO was used for sample determination at 535 nm, and the spectra were recorded from 550 to 750 nm.
To determine the competitive binding of EB against peptides with bacterial DNA, 100 μL of DNA (50 μg/mL) solution was mixed with 100 μL of peptide solution (80 μg/mL) and incubated at 37 °C for 10 min. Then aliquots of stock solution of EB (0, 25, 50, and 100 μg/mL, 1.5 μL) were added to the fixed DNA-peptide solution and incubated for 30 min at 37 °C in the dark. The fluorescence spectra were measured as described above.

E. tarda cells = assay: TEM ultrastructure; format: cell-based, Edwardsiella tarda; details: 4 × MIC for 2 h, 1 × 10^8 CFU/mL
Method: Mid-log phase E. tarda cells (1 × 10^8 CFU/mL) were incubated with 4 × MIC N6 or N6NH2 for 2 h at 37 °C. The bacterial cells were then centrifuged, washed three times with 0.1 M PBS (pH 7.2) and fixed overnight at 4 °C with 2.5% glutaraldehyde. After washing twice with PBS, the cells were post-fixed with 1% osmium tetroxide (OsO4) for 2 h, dehydrated in a graded ethanol series (from 50% to 100%) for 15 min each time and dried by CO2. The cell samples were sputtered with gold-palladium and observed on a QUANTA200 electron microscopy (FEI, Philips, The Netherlands).
The bacterial cells were treated with peptides as described above, fixed with 2.5% glutaraldehyde at 4 °C overnight and post-fixed with 1% OsO4 for 1 h. After washing three times with PBS, the cells were dehydrated with a graded acetone series (50%, 70%, 85%, 95% and 100%, for 7 min each time) and immersed in mixtures of acetone and resin (3:1, 1:1 and 1:3, 40 min each time). The samples were infiltrated with a pure epoxy resin overnight, embedded in capsules containing embedding medium and polymerized at 45 °C for 3 h and at 65 °C for 24 h, respectively. Thin sections were cut using an ultramicrotome, stained with 1% uranyl acetate and examined by a JEM1400 (JEDL, Tokyo, Japan).

Staphylococcus hyicus = assay: microbe, parasite or virus in culture; format: cell-based
Method: as §1

[6] = test system: Escherichia coli, S. typhimurium, S. enteritidis and S. pullorum; assay: organism not typed; format: cell-based
Method: as §1

E. coli CVCCO157 = details: broth microdilution, MHB, 1 × 10^5 CFU/mL, 37 °C 18–24 h, n = 3; some N6 data from ref 19
[7] = test system: Staphylococcus aureus ATCC43300
[8] = broth microdilution, MHB, 1 × 10^5 CFU/mL, 37 °C 18–24 h, n = 3, some N6 data from ref 19

For `CC(C)[C@@H]1NC(=O)CNC(=O)[C@H](CC(N)=O)NC(=O)[C@H](CCCNC(=N)N)NC(=O)[C@H](Cc2ccc(O)cc2)NC(=O)[C@H](C(C)C)NC(=O)[C@@H](NC(=O)[C@@H](NC(=O)[C@H](CC(N)=O)NC(=O)[C@H](Cc2c[nH]c3ccccc23)NC(=O)[C@H](C)NC(=O)[C@H](Cc2ccccc2)NC(=O)CN)C(C)C)CSSC[C@@H](C(=O)N[C@@H](Cc2c[nH]cn2)C(=O)N[C@@H](CCCNC(=N)N)C(=O)N[C@@H](CCCNC(=N)N)C(=O)N[C@@H](C)C(=O)N[C@@H](CC(N)=O)C(=O)O)NC(=O)[C@H](C(C)C)NC(=O)[C@H](CCCNC(=N)N)NC1=O` [Peptide N6] (H-GFAWNVCVYRNGVRVCHRRAN-OH; disulfide 7-16; N-terminus assumed), the MBC (E. tarda [1]) was 12.8 µg/mL (≈ 5.17 µM), the “time at which bacteria were killed (time-kill curve)” value (E. tarda [2]; 2 × MIC) was no more than 2 h and the “time at which bacteria were killed (time-kill curve)” value (E. tarda [2]; 4 × MIC) was no more than 2 h. For the same molecule, the “decrease of antimicrobial activity against E. tarda after heating” value (E. tarda [3]) was 6.7%, the “antibacterial activity at different pH values” (E. tarda [4]) was “strong antibacterial activity” and the “percentage of E. tarda stained with PI” value ([5]; 4 × MIC, 120 min, 1 × 10^8 CFU/mL, PI 50 μg/mL, flow cytometry) was 77.7%. For the same molecule, the “percentage of E. tarda stained with PI” value ([5]; within 30 min, 1×, 2× and 4× MIC) was “less than 5%”, the “competition with EB for binding to E. tarda genomic DNA (quenching of DNA-EB fluorescence)” value (E. tarda genomic DNA) was “the binding affinity of N6 was stronger than that of N6NH2” and the “abnormal cells (TEM)” value (E. tarda cells) was “over 95%”. For the same molecule, the MIC (Staphylococcus hyicus) was 16 to 64 µg/mL, the MIC [6] was 0.25 to 4 µg/mL and the MIC (E. coli CVCC25922; CVCC25922) was 0.1 µM. The MIC (E. coli CVCC25922; [8]) was 0.25 µg/mL, the MIC (E. coli CVCCO157) was 0.5 μg/mL and 0.2 μM and the MIC (S. enteritidis CVCC3377; CVCC3377) was 0.1 µM. It also gave an MIC (S. enteritidis CVCC3377; [8]) of 0.25 µg/mL, an MIC (S. pullorum CVCC1789; CVCC1789) of 0.2 µM and an MIC (S. pullorum CVCC1789; [8]) of 0.5 µg/mL. For the same molecule, the MIC ([7]; ATCC43300) was 6.46 µM, the MIC [7, 8] was 16 µg/mL and the MIC (S. aureus ATCC546; ATCC546) was 1.62 µM. It also gave an MIC (S. aureus ATCC546; [8]) of 4 µg/mL, an MIC (S. hyicus 15095) of 6.46 µM and an MIC (S. hyicus 15095; [8]) of 16 µg/mL.
